A word on the melting point: it is the temperature, or range, at which the solid turns liquid.

In the case of `COc1ccc([N+](=O)[O-])cc1CN1CCC(=O)C(C(c2ccccc2)c2ccccc2)C1` (centres undefined), the melting point lay within 119 to 120 °C.

Turning to `CCOC(=O)c1sc(=O)[nH]c1C(F)(F)C(F)(F)F`, the melting point lay in the range of 95 to 97 °C.

Turning to `CC(C)C(NS(=O)(=O)c1ccc(Cl)s1)c1ncnn1Cc1ccccc1` (centres undefined), the melting point lay within 138 to 139 °C.

In turn, `CCOC(=O)c1cc2cccc(NS(=O)(=O)c3ccccc3OC)c2n1COC` showed a melting point of 106 to 107 °C.

In turn, `CCCCOc1cc(Cl)c(OCCCC)cc1N` yielded a melting point of 43 to 44 °C.

The compound `CC(=NOCCOc1ccc(CC2SC(=O)NC2=O)cc1)c1ccc(-c2ccc(F)cc2)cc1` (centres undefined) registered a melting point of 155 to 156 °C.

Compound `COc1cc(Cl)cc(CSCCNC(=O)c2c(Cl)cccc2Cl)c1` came in with a melting point of 83 to 84 °C.

`Cc1cc(COc2nn3c(-c4cc(C)on4)nnc3c3ccccc23)no1` yielded a melting point of 243 to 245 °C.

`CC(=O)O[C@@H](c1cnnn1-c1ccccc1)[C@@H](CCN1CCC(N2CCCCC2=O)CC1)c1ccc(Cl)c(Cl)c1` (racemic) yielded a melting point of 65 to 67 °C.

`COc1cc(OC)c(F)c(N=Cc2cnc(SC)nc2NC2CC2)c1F` returned a melting point of 172 to 174 °C.

`COC(=O)c1ccc(Cc2cn(C)c3ccc(NC(=O)CC4CCCC4)cc23)c(OC)c1` yielded a melting point of 180 to 181 °C.

Compound `CNC(=O)CCCCCCCN(Cc1ccccc1)S(=O)(=O)c1ccc(Cl)c(COc2cccc3ccc(C)nc23)c1Cl` gave a melting point of 120 °C.

Regarding `COc1cc(Br)nc(C(=O)O)c1OCc1ccccc1`, the melting point is 134 to 135 °C.

`Cc1cccc2[nH]c(C(=O)OC(C)C)c(Sc3ccc(Cl)cc3)c12` registered a melting point of 190 to 192 °C.

In turn, `CC(C)(C)OC(=O)NCc1ccc(OCCC2Oc3ccccc3N(Cc3ccccc3Cl)C2=O)cc1` (centres undefined) returned a melting point of 121 to 123 °C.

Turning to `CNC(=O)C#Cc1ccccc1C`, the melting point is 52 to 55 °C.

As for `Cc1cc(-c2ccco2)ccc1C(=O)CC(=O)C(F)(F)F`, the melting point was 135 to 137 °C.

Turning to `CC(=O)Oc1c(C(C)(C)C)cc(C#N)c(C)c1C(=O)Nc1ccc(C#N)cc1C(F)(F)F`, the melting point lay in the range of 171 to 172 °C.

`NC(=O)[C@H]1CCc2c(sc3nc(CN4C(=O)COC4=O)c(Cl)c(-c4ccc(O)cc4)c23)C1` showed a melting point of 317 to 318 °C.

As to `COC(=O)c1nc2n(n1)-c1ccccc1N(c1cccc(C(F)(F)F)c1)C2`, the melting point was 204 to 206 °C.

`Oc1ccc(Cc2ncc[nH]2)cc1`: the melting point was 188 to 190 °C.

`COc1cccc(Cc2cnc(N[N+](=O)[O-])[nH]c2=O)c1` had a melting point of 178 to 179 °C.

`CN1C(=O)CCC2(C)c3ccc(C(c4ccccc4)c4ccccc4)cc3CCC12` (centres undefined): the melting point was 145 to 146 °C.

With `O=c1c(Br)cc(-c2ccncn2)cn1Cc1ccccc1`, the melting point was 189 to 192 °C.

With `CC(O)(C(=O)O)c1ccc(-c2ccccc2)c(F)c1` (centres undefined), the melting point lay in the range of 161 to 163 °C.

Consider `COCC(C)c1ccc(N2Cc3ccc(OC)cc3C2=O)cc1` (centres undefined), for which the melting point was 116 to 118 °C.

Consider `CSc1ccc(NC(=O)N(C)O)cc1C(F)(F)F`, for which the melting point amounted to 125 °C.

In the case of `Cc1cccc(C2=C(c3cn(C)c4ccccc34)C(=O)NC2=O)c1`, the melting point was 243 °C.

`CC(C)(C)C(NC(=O)c1cc(F)cc(F)c1)Nc1c(Nc2cccnc2Cl)c(=O)c1=O` (centres undefined) gave a melting point of 215 to 217 °C.

With `Cc1cc(-c2nncc3c(C(C)(C)C)c(OCc4cccnc4)nn23)no1`, the melting point lay in the range of 139 to 141 °C.

In the case of `Cn1nc(O)c2ccccc2c1=O`, the melting point is 243 to 244 °C.

As for `CC(=O)SCCc1nc[nH]n1`, the melting point was 84 to 86 °C.

`N#Cc1cccc(NC(=O)NC2N=C(CN3CCOCC3)c3ccccc3NC2=O)c1` (centres undefined) gave a melting point of 249 to 250 °C.

In turn, `CC(=O)N1CCc2cc(C(=O)C(C)Br)ccc21` (centres undefined) came in with a melting point of 140 to 142 °C.

Source of the values: a melting point compilation (Tetko et al.; mined from patent text by program, amines drawn as free bases though some values may be those of a salt).
